Data published in PubChem BioAssay AID1397 (The Scripps Research Institute Molecular Screening Center, 2008).
The source made the active and inactive calls.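 The calls were made as follows: active = potency EC50 for STAT1 activation at or below 10 micromolar; inactive = EC50 above 10 micromolar.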

System: NIH 3T3 STAT1-luciferase reporter, luminescence
Test: enhancement of STAT1 reporter activity – cell-based, NIH 3T3, luciferase luminescence, dose response (AID 1397)
Conditions: not given

Question: For Nc1ccccc1C(=O)OCC(=O)N1CCc2ccccc21, which EC50 is on record?
Answer: 2220 nM

Question: Which EC50 does the source give for CC(=O)Nc1ccccc1C(=O)OCc1cccc(F)c1 here?
Answer: 3020 nM

Same assay, conditions: cells stimulated with IFN-gamma at EC80

Question: Which EC50 does the source give for Cc1nc(-c2ccc(NC(=O)c3ccccc3C)cc2)cs1 here?
Answer: 1840 nM

Question: Which EC50 does the source give for CN(C)c1ccnc2sc(C(=O)c3ccccc3)c(N)c12 here?
Answer: 1970 nM

Question: Which EC50 does the source give for Cc1cccc(Nc2n[nH]c(C)c2[N+](=O)[O-])c1 here?
Answer: 1240 nM

Question: How did the EC50 turn out when N#C/C(=C\c1ccc(N2CCOCC2)o1)c1nc2ccccc2[nH]1 was run?
Answer: > 76 nM (inactive)

Question: Which EC50 does the source give for O=C(c1ccccc1)c1ccc(N2CCCC2)cc1 here?
Answer: 1970 nM

Question: With c1csc(C2=NNC(=NC3CCCCC3)SC2)c1 as the compound, how does the EC50 read?
Answer: > 688 nM (inactive)

Question: For Cc1ccc2nc(NC(=O)CCn3cccc3)sc2c1, which EC50 is on record?
Answer: 6940 nM

Question: Which EC50 does the source give for CC(=O)c1cccc(NC(=S)NC(=O)c2cccc(C)c2)c1 here?
Answer: 1890 nM

Question: How did the EC50 turn out when CC(C)Oc1ccc2c(=O)c(-c3ccccc3)coc2c1 was run?
Answer: 418 nM

Question: With Cc1nc(-c2ccc(NC(=O)c3ccccc3Br)cc2)cs1 as the compound, how does the EC50 read?
Answer: 2600 nM

Question: Which EC50 does the source give for CCOC(=O)CSc1nc(-c2ccncc2)ccc1C#N here?
Answer: 1200 nM

Question: Which EC50 does the source give for Nc1ncc(-c2cc3ccccc3oc2=O)s1 here?
Answer: > 687 nM (inactive)

Question: With C=CCNc1nc(-c2cc3ccccc3o2)cs1 as the compound, how does the EC50 read?
Answer: > 764 nM (inactive)

Question: O=C(Nc1cccc(Cl)c1)c1ccc2c(=O)n3c(nc2c1)CCCCC3 was tested. Which EC50 did it give?
Answer: 811 nM

Question: Which EC50 does the source give for Fc1ccc2nc(Nc3nc4cc5c(cc4s3)OCCO5)sc2c1 here?
Answer: 1290 nM

Question: With Fc1ccccc1CSc1nnc(-c2cccnc2)o1 as the compound, how does the EC50 read?
Answer: 4520 nM

Question: How did the EC50 turn out when Cc1ccc(-c2cc(N)n(-c3ccccc3)n2)cc1 was run?
Answer: 3000 nM

Question: How did the EC50 turn out when CCCOC(=O)c1ccc(-c2ccc(C=O)o2)cc1 was run?
Answer: 436 nM

Question: Which EC50 does the source give for O=C(Cn1cnc2ccccc2c1=O)c1ccc(Cl)cc1 here?
Answer: 8040 nM

Question: How did the EC50 turn out when Cc1ccc(/C=C/C(=O)N2CCCC(C)C2)cc1 (stereo unspecified) was run?
Answer: > 687 nM (inactive)

Question: For CC(=O)NC(=S)Nc1sc2c(c1C#N)CCCCC2, which EC50 is on record?
Answer: > 76 nM (inactive)

Question: Which EC50 does the source give for CC(C)(C)N=C1NN=C(c2cc3ccccc3o2)CS1 here?
Answer: 825 nM

Question: COc1ccc2c(c1)oc(=O)c1cc(OC)ccc12 was tested. Which EC50 did it give?
Answer: 4280 nM

Question: COc1ccc(-c2cc(C)nc3c(-c4ccccc4)cnn23)cc1 was tested. Which EC50 did it give?
Answer: > 76 nM (inactive)

Question: Cc1nc2ccc(-c3nc4ccccc4o3)cc2[nH]1 was tested. Which EC50 did it give?
Answer: 356 nM

Question: For COc1ccc2[nH]c3c(c2c1)CCn1c-3nc2ccccc2c1=O, which EC50 is on record?
Answer: > 76 nM (inactive)

Question: With c1ccc(CNc2ccc3ccccc3n2)nc1 as the compound, how does the EC50 read?
Answer: > 687 nM (inactive)

Question: For COc1ccc(-c2nc3ccc([N+](=O)[O-])cc3[nH]2)cc1, which EC50 is on record?
Answer: 126 nM

Question: How did the EC50 turn out when COc1ccc(Nc2oc(-c3cccs3)nc2C#N)cc1 was run?
Answer: 3220 nM

Question: With CCOC(=O)/C(C#N)=C/c1cc(C)n(-c2ccccc2)c1C as the compound, how does the EC50 read?
Answer: 69 nM

Question: How did the EC50 turn out when CN(C)c1ccc(C(=O)OCC(=O)c2cccs2)cc1 was run?
Answer: > 687 nM (inactive)

Question: For CCCCOC(=O)Nc1nc2ccccc2s1, which EC50 is on record?
Answer: 741 nM

Question: O=C(/C=C/c1ccccc1)Nc1ccc(Cl)cn1 was tested. Which EC50 did it give?
Answer: 669 nM

Question: O=C(Nc1ccc(-c2nc3cccnc3s2)cc1)c1ccco1 was tested. Which EC50 did it give?
Answer: 341 nM

Question: Which EC50 does the source give for Nc1ccc2nn(-c3ccccc3)nc2c1 here?
Answer: 1350 nM

Question: Which EC50 does the source give for CCOc1ccc2nc(N3CCOCC3)nc(C)c2c1 here?
Answer: 2300 nM

Question: For O=C(OCc1csc(-c2ccccc2)n1)c1cccs1, which EC50 is on record?
Answer: > 687 nM (inactive)

Question: For O=C(/C(C=Nc1ccc(F)cc1)=C(/O)c1ccco1)C(F)(F)F, which EC50 is on record?
Answer: > 687 nM (inactive)

Question: For Clc1ccc(-n2ncc3c(N4CCCC4)ncnc32)cc1, which EC50 is on record?
Answer: > 55700 nM (inactive)

Question: With CCC(C)NC(=O)c1cc(-c2ccc(OC)cc2)on1 (stereo unspecified) as the compound, how does the EC50 read?
Answer: 1300 nM

Question: For Cc1ccc(C(=O)Nc2nc3ccccc3s2)s1, which EC50 is on record?
Answer: > 76 nM (inactive)

Question: How did the EC50 turn out when COc1ccc(NC(=S)Nc2ccc3nccnc3c2)cc1 was run?
Answer: 13300 nM (inactive)

Question: With CC(=O)c1cccc(N/C=C\C(=O)c2ccc(C)cc2)c1 as the compound, how does the EC50 read?
Answer: > 687 nM (inactive)

Question: For COc1cc(NC(=O)c2csc3c2CCCC3)ncn1, which EC50 is on record?
Answer: 1210 nM

Question: With CCOC(=O)c1sc(NC(=O)c2sccc2C)cc1C as the compound, how does the EC50 read?
Answer: 233 nM

Question: CC(=O)Nc1cccc(-c2cnc3ccccc3n2)c1 was tested. Which EC50 did it give?
Answer: 3860 nM

Question: How did the EC50 turn out when Cc1ncsc1C(=O)Nc1nc2c(s1)CCCC2 was run?
Answer: 2680 nM

Question: Cc1ccc(/C=C/C(=O)Nc2ccccc2C(N)=O)cc1 was tested. Which EC50 did it give?
Answer: > 687 nM (inactive)

Question: C=CCNC(=S)NNC(=O)COc1ccc2cc(Br)ccc2c1 was tested. Which EC50 did it give?
Answer: 3040 nM

Question: Which EC50 does the source give for COc1ccc2nc(Nc3nc(C)c(C(C)=O)s3)sc2c1 here?
Answer: 2120 nM

Question: Cc1cc(C(=O)NCCC2=CCCCC2)c(C)o1 was tested. Which EC50 did it give?
Answer: > 229 nM (inactive)

Question: With O=C(NCCC1=CCCCC1)c1ccc(F)cc1 as the compound, how does the EC50 read?
Answer: > 687 nM (inactive)

Question: Which EC50 does the source give for COc1ccc2nc(Nc3ccc4c(c3)OCO4)sc2c1 here?
Answer: 3070 nM

Question: Cc1ccc(C(=O)/C=C/Nc2cccc([N+](=O)[O-])c2)o1 was tested. Which EC50 did it give?
Answer: 1380 nM

Question: CCOC(=O)c1cnc2c(-c3ccccc3)cnn2c1N was tested. Which EC50 did it give?
Answer: 229 nM

Question: For CCc1c(C)[nH]c(C(=O)OCc2ccccc2)c1C, which EC50 is on record?
Answer: 6910 nM

Question: With Cc1ccc(-c2cnc(-c3ccncc3)o2)cc1 as the compound, how does the EC50 read?
Answer: 3300 nM

Question: C/C(=C\c1ccccc1)C(=O)Nc1nccs1 was tested. Which EC50 did it give?
Answer: 2090 nM

Question: Which EC50 does the source give for Cc1ccc(-c2cc3nc(C)cc(NCc4ccco4)n3n2)cc1 here?
Answer: 3430 nM

Question: With O=C(/C=C/Nc1ccc(F)cc1)c1ccc(Br)cc1 as the compound, how does the EC50 read?
Answer: 431 nM

Question: O=C(Nc1ccc2c(c1)OCCO2)c1ccc(Br)s1 was tested. Which EC50 did it give?
Answer: > 229 nM (inactive)

Question: Which EC50 does the source give for COc1ccc(N/C=C\C(=O)c2ccc3c(c2)OCO3)cc1OC here?
Answer: 2860 nM

Question: For O=C(/C=C/c1ccc(F)cc1)Nc1nc2ccccc2[nH]1, which EC50 is on record?
Answer: 920 nM

Question: COc1ccc(-c2cc3ncc(-c4ccccc4)c(N)n3n2)cc1 was tested. Which EC50 did it give?
Answer: 1210 nM

Question: Which EC50 does the source give for Nc1ccc2oc(-c3ccccc3Cl)nc2c1 here?
Answer: > 229 nM (inactive)

Question: Which EC50 does the source give for O=C(CCc1nnc(CCCc2ccccc2)o1)N1CCCCCC1 here?
Answer: 7830 nM

Question: For COc1cccc(NC(=O)Nc2ccc(C(C)(C)C)cc2)c1, which EC50 is on record?
Answer: 2810 nM

Question: How did the EC50 turn out when O=C(NC(=S)Nc1ccc(F)cc1)c1ccc2c(c1)OCCO2 was run?
Answer: 1000 nM

Question: For CCc1ccc(Nc2ncc3c(n2)CC(C)CC3=O)cc1 (stereo unspecified), which EC50 is on record?
Answer: 751 nM

Question: How did the EC50 turn out when O=C(/C(C=Nc1ccc(Br)cc1)=C(/O)c1ccco1)C(F)(F)F was run?
Answer: > 685 nM (inactive)

Question: c1cncc(-c2nc3cc4ccccc4cc3[nH]2)c1 was tested. Which EC50 did it give?
Answer: 331 nM

Question: C=CCn1c(C)cc(C(=O)CSc2nc3ccccc3o2)c1C was tested. Which EC50 did it give?
Answer: > 229 nM (inactive)

Question: How did the EC50 turn out when CCNc1nc(-c2cc3ccccc3o2)cs1 was run?
Answer: 179 nM

Question: With CC(=O)Nc1ccc(-c2csc(Nc3cccc(C)n3)n2)cc1 as the compound, how does the EC50 read?
Answer: 1650 nM

Question: How did the EC50 turn out when CC(C)=CC(=O)Nc1nc2ccc([N+](=O)[O-])cc2s1 was run?
Answer: 3130 nM

Question: Which EC50 does the source give for CN(C)c1nc(N)nc(CSc2nc3cc(Cl)ccc3o2)n1 here?
Answer: 18600 nM (inactive)

Question: For Cc1ccc(NC(=O)Nc2ccc3oc(C)nc3c2)cc1, which EC50 is on record?
Answer: 1650 nM

Question: For O=C(NC(=S)Nc1ccccn1)c1ccc([N+](=O)[O-])cc1, which EC50 is on record?
Answer: 525 nM

Question: CCOCC(=O)Nc1nc2ccc(OCC)cc2s1 was tested. Which EC50 did it give?
Answer: > 55700 nM (inactive)

Question: With CC(=O)COc1ccc2c(C)c(-c3ccccc3)c(=O)oc2c1 as the compound, how does the EC50 read?
Answer: 31500 nM (inactive)

Question: With Nc1nc2ccc(-c3nc4ccccc4o3)cc2s1 as the compound, how does the EC50 read?
Answer: 516 nM

Question: With CCOC(=O)c1ccc2nc(NC(C)=O)sc2c1 as the compound, how does the EC50 read?
Answer: 2540 nM

Question: Which EC50 does the source give for O=C(/C=C/Nc1ccccc1F)c1ccc(Br)cc1 here?
Answer: > 76 nM (inactive)

Question: How did the EC50 turn out when O=C(O)c1ccccc1C(=O)Nc1ccc(-c2csc(-c3ccccc3)n2)cc1 was run?
Answer: 3880 nM

Question: Which EC50 does the source give for CCc1ccc(NC(=O)N2CCC(c3ccccc3)C2)cc1 (stereo unspecified) here?
Answer: 1370 nM

Question: For O=C(Nc1nccs1)c1ccc(-c2ccc([N+](=O)[O-])cc2)o1, which EC50 is on record?
Answer: 1220 nM

Question: Which EC50 does the source give for CN1C(=O)/C(=C/C=C2\SCCN2C)SC1=S here?
Answer: 420 nM

Question: How did the EC50 turn out when Cc1nnc(SCC(=O)Nc2ccc(-c3nc4ccccc4s3)cc2)s1 was run?
Answer: 93 nM

Question: With C=CCNC(=O)c1cc(-c2ccc(Br)cc2)on1 as the compound, how does the EC50 read?
Answer: 832 nM

Question: For NC(=O)Cc1ccc2sc(-c3ccccc3)nc2c1, which EC50 is on record?
Answer: 463 nM

Question: How did the EC50 turn out when Cc1ccc(C(=O)Nc2nc3c(s2)CCCC3)o1 was run?
Answer: > 229 nM (inactive)

Question: For COc1cccc(N/C=C/C(=O)c2ccc(Cl)cc2)c1, which EC50 is on record?
Answer: 114 nM

Question: For O=[N+]([O-])c1ccccc1OCCCn1cnc2ccccc21, which EC50 is on record?
Answer: 1500 nM

Question: CCN(CC)c1ccc2cc(C(=O)Nc3ccccn3)c(=O)oc2c1 was tested. Which EC50 did it give?
Answer: > 76 nM (inactive)

Question: Cc1ccc(C(=O)N2CCc3ccccc32)o1 was tested. Which EC50 did it give?
Answer: > 687 nM (inactive)

Question: With CCCCCNc1nc(-c2ccccc2)cs1 as the compound, how does the EC50 read?
Answer: 851 nM

Question: Which EC50 does the source give for O=C(/C=C/c1cccc(F)c1)N1CCc2ccccc21 here?
Answer: 210 nM

Question: With COc1ccc(/C=C/C(=O)Nc2ccccc2)cc1OC as the compound, how does the EC50 read?
Answer: 5130 nM

Question: How did the EC50 turn out when Clc1ccc(-n2ncc3c(NCC4CCCO4)ncnc32)cc1 (stereo unspecified) was run?
Answer: 409 nM

Question: Cc1nc2ccc3nc(NC(=O)c4ccco4)sc3c2s1 was tested. Which EC50 did it give?
Answer: 11000 nM (inactive)

Question: How did the EC50 turn out when Nc1ccccc1Nc1cc(-c2ccccc2)[nH]n1 was run?
Answer: 2720 nM

Question: Which EC50 does the source give for COc1ccc(-c2csc(N3C(=O)CNC3=S)n2)cc1 here?
Answer: 87 nM

Question: How did the EC50 turn out when Cc1occc1C(=O)Nc1ccc2c(c1)CCC2 was run?
Answer: 1600 nM

Question: Which EC50 does the source give for O=C(/C=C/c1ccco1)Nc1ccccn1 here?
Answer: > 687 nM (inactive)
